Legend:
[1] = tested on: α1 -adrenergic receptors; test: binding to α1-adrenergic receptors on rat brain homogenates (3H-WB 4101); conditions: 1.6 nM 3H-WB 4101
Procedure: (§1) The activity of the compounds according to the invention with respect to binding of the α-adrenergic receptors was determined in vitro according to a method deriving from the works of B. R. Rouot et al., Life Sci., 25, 769 (1979) and of D. U'Prichard et al., Mol. Pharmacol., 13, 454 (1977). This method consists in measuring the binding to the receptor on rat brain homogenates, by marking by means of a specific tritriated ligand placed in competition with the product to be tested.
(§2) In the presenct case the binding to the α1 -adrenergic receptors was measured by means of 1.6 nM of ^3 H-WB 4101 and the binding to the α2 -adrenergic receptors by means of 0.7 nM of ^3 H-p. aminoclonidine, the non-specific binding being determined by 1,000 nM of phentolamine. The results are given in Table II, column 3, and are expressed in terms of percentage of inhibition of the specific binding of 10^-7 molar compound concentration.
(§3) (2) The specific binding is the total binding less the nonspecific
(§4) binding. The total binding is the binding in the absence of nonradioactiv
(§5) drug. The nonspecific binding is the binding in the presence of 1,000 nM
(§6) of phentolamine. The products of the invention are tested at a
(§7) concentration of 10^-7 molar.

[2] = tested on: bicuculline-induced tonic extension in mice; test: protection against bicuculline-induced tonic extension in mice; type: in vivo; conditions: Mus musculus, iv, 3 hours prior to bicuculline 0.7 mg/kg i.v., read-out: Anticonvulsive effect (versus Bicuculline) (% Protection)
Procedure: In the second study the anti-convulsant effect of the compounds of the present invention was examined in two seizure models; bicuculline-induced tonic extension in mice and 3-mercaptopropionic acid (3-MPA)-induced tonic extension in mice.
In the bicuculline study, the ability of the compounds of the present invention to protect against tonic extension (involving rigidity) was evaluated as follows. Each test compound was administered to a group of ten mice at a dose of 10 mg/kg, 3 hours prior to the i.v. administration of bicuculline (0.7 mg/kg). Anticonvulsant activity in this test is expressed as percentage of animals tested. The results are given in Table II, column 6, and indicate that several compounds display significant anticonvulsive activity in this test. The anticonvulsant effect of the compounds has also been tested with respect to the tonic extension induced by 3-mercaptopropionic acid (120 mg/kg subcutaneously) in mice.

[3] = tested on: α2 adrenergic receptors of the central nervous system; test: inhibition of the antihypertensive action of clonidine in spontaneously hypertensive rats (SHR); type: in vivo, rat; conditions: 1 mg/kg p.o., clonidine 50 μg/kg s.c.
Procedure: In the first study, carried out upon unanaesthetized spontaneously hypertensive rats (SHR rats), the ability of the compounds of the present invention to inhibit the antihypertensive action of clonidine was determined.
The antihypertensive activity of clonidine results from an interaction with α2 adrenergic receptors of the central nervous system, i.e., central antihypertensive actions.
In this test, two groups of SHR rats are utilized as follows. In the first group, prior to subcutaneous administration of clonidine (50 μg/kg), the SHR rats are treated with the compound to be tested (1 mg/kg p.o.) dissolved in a saline vehicle. The second group (control group) of SHR rats are treated with the saline vehicle only, prior to subcutaneous administration of clonidine.
The arterial pressure is measured in the region of the median coccygeal artery according to the method of J. Roba, A. F. DeSchaepdrijver, Exp. Anim., 4, 147-162 (1971).
The results of this assay summarized in Table II, column 5, are expressed as a percentage of inhibition of the effect of clonidine.

[4] = molecular target: T1, α2 -adrenergic receptors (Rattus norvegicus, UniProt P22909); test: binding to α2-adrenergic receptors on rat brain homogenates (3H-p. aminoclonidine); conditions: 10^-7 M; rat brain homogenates; 0.7 nM 3H-p. aminoclonidine; read-out: % Inhibition of the Specific Binding at 10^-7 M for α2 Recep.
T1 construct: from tissue; host or cells: rat brain homogenates
T1 sequence (P22909 1-465): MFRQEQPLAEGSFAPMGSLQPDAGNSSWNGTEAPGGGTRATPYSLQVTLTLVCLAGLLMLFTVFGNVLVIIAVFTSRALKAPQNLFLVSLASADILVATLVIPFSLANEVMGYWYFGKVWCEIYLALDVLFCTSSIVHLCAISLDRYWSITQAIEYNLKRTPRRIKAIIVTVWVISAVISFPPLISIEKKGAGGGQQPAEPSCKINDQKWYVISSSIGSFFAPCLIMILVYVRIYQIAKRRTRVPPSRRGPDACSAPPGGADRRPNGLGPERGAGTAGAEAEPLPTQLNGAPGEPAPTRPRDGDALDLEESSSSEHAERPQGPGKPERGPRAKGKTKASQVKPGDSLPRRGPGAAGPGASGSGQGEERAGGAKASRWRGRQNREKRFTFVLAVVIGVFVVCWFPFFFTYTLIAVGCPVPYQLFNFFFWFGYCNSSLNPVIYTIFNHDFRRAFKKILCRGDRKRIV
Procedure: as §1, §2, §3, §4, §5, §6, §7

[5] = molecular target: T2, α2 -adrenergic receptors (Cavia porcellus, UniProt Q60474); test: α2 antagonist and α2 agonist activity in isolated guinea pig ileum (clonidine)
T2 construct: from tissue; host or cells: isolated guinea pig ileum
T2 sequence (Q60474 1-464): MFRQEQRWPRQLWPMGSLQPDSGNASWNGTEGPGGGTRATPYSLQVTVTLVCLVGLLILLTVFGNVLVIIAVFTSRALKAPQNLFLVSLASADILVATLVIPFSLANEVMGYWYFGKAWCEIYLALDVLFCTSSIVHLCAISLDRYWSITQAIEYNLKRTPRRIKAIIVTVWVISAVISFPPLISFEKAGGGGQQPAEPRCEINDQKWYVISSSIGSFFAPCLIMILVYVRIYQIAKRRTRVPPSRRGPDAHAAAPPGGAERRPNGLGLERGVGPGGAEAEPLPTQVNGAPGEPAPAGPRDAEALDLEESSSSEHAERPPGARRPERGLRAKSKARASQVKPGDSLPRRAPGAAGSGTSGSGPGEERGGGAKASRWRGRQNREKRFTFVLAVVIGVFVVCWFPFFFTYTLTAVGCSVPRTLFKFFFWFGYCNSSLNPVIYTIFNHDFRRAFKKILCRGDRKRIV
Procedure: The α2 antagonist and α2 agonist activity of the compounds according to the invention was determined upon isolated organs according to a model described by G. M. Drews, Br. J. Pharmaco., 64, 293-300 (1978).
This model is based upon the principle that the stimulation of the cholinergic nervous transmissions of the guinea pig ileum causes the liberation of acetyl choline, which in turn causes contractions of the ileum.
The stimulation of the α2 -adrenergic receptors inhibits the activity of the cholinergic nerve and consequently reduces all response resulting from a timulation of the latter. Thus the contractions of the ileum induced by electric stimulation of the tissue are inhibited by clonidine, an α2 agonist, in proportion to the dose. This inhibition is specifically displaced by the α2 antagonists and not by the α1 antagonists.
The method utilized can be summarized as follows: three dose-response curves to clonidine are established at an interval of 60 minutes. Two concentrations of the product to be tested are added successively 10 minutes before the realization of the second and third clonidine curves. Next, after washing, a dose-response curve is established with the product to be tested.
The dose-response curves are calculated as a percentage of the maximum inhibition obtained for the first curve. In this system the products having an α2 antagonist activity displace the dose-response curve to clonidine. The α2 antagonist activity, expressed in pA2 value, shown in column 4, is calculated according to J. M. Van Rossum, Arch. Int. Pharmacodyn., 143, 299-300 (1963).
A reduction of the contractions induced by the tested product alone indicates an α2 agonist effect. This activity is expressed in--log ED50 (the--logarithm of the concentration of the product giving 50% of the maximum inhibition obtained with clonidine).
The higher the pA2 value, the higher the α2 antagonist activity; the higher the--log ED50 value (i.e., the pA2 agonist activity), the higher the α2 agonist activity.

[6] = acute toxicity after oral administration to mice (LD50); conditions: mouse, in vivo, 15 days mortality
Procedure: The acute toxicity of the compounds of the present invention was studied after oral administration to mice. The products to be tested, suspended in a 1% tragacanth gum mucilage, were administered by means of an intragastric probe to groups of three male mice which had fasted since the preceding day. The doses tested are a function of the effect observed and can vary from 3,000 to 3 mg/kg or less. The mortality was recorded for 15 days. The lethal dose for 50% of the animals (LD50) was calculated according to the method of J. Litchfield and F. Wilcoxon, J. Pharmacol. Exp. Ther., 96, 99 (1949) and expressed in mg/kg. The effect of the products on the behaviour of the animals is observed until 5 to 6 hours after the treatment indicated above and after 24 hours, using a method derived from that of S. Irwin, described by R. A. Turner, Screening Methods in Pharmacology, Chapter 3, pages 22-34, Academic Press, 1965. If anomalies are noted, the observation is prolonged and smaller doses are tested.

Row | SMILES | % Inhibition of the Specific Binding at 10^-7 M for α1 Recep. [1] [%] | responders at 10 mg/kg [2] [%] | α2 Antagonist (% Inhibition of the Antihypertension of Clonidine) [3] [%] | inhibition at 0.1 µM [4] [%] | EC50 ([5]; 50% of maximum inhibition obtained with clonidine, read-out: α2 Agonist Activity (-log ED50) (converted)) [nM] | Kb ([5]; versus clonidine, read-out: α2 Antagonist Activity (pA2) (converted)) [nM] | LD50 at 360 h [6] [mg/kg]
1 | CC(=C(c1ccccc1)c1ccccc1)c1c[nH]cn1 [Compound 2, 4(5)-[(2,2-diphenyl-1-methyl)ethenyl]imidazole] | 3 | 20 | 71 | 43 | 2510 | 50.1 | –
2 | OC(c1c[nH]cn1)C(c1ccccc1)c1ccccc1 (stereo not shown) [Compound 5] | 3 | 30 | 24 | 2 | – | – | > 300
3 | c1ccc(C(Cc2c[nH]cn2)(c2ccccc2)c2ccccc2)cc1 [Compound 8] | 0 | 20 | 28 | 0 | – | – | 1.75
4 | C(=C(c1ccccc1)c1ccccc1)c1c[nH]cn1 [Compound 11] | 6 | 40 | 48 | 9 | – | – | –
5 | COC(=O)c1ccccc1C(Cc1c[nH]cn1)c1ccccc1 (stereo not shown) [Compound 31] | 13 | – | – | 20 | – | – | –
6 | CCCC(c1c[nH]cn1)C(c1ccccc1)c1ccccc1 (stereo not shown) [Compound 19, 4(5)-[2-(1,1-diphenyl)pentyl]imidazole] | 4 | 40 | 75 | 15 | – | – | 350
7 | CCCC(=C(c1ccccc1)c1ccccc1)c1c[nH]cn1 [Compound 18, 4(5)-[(2,2-diphenyl-1-n.propyl)-ethenyl]-imidazole] | 0 | 50 | 47 | 0 | – | – | 270
8 | COC(c1c[nH]cn1)C(c1ccccc1)c1ccccc1 (stereo not shown) [Compound 6] | 0 | 30 | 62 | 0 | – | – | –
9 | Cc1nc(CC(c2ccccc2)c2ccccc2)c[nH]1 [Compound 25, 4(5)-(2,2-diphenylethyl)-2-methylimidazole] | 0 | 10 | 87 | 3 | – | – | –
10 | COC(c1c[nH]c(C)n1)C(c1ccccc1)c1ccccc1 (stereo not shown) [Compound 26] | 1 | 10 | – | 2 | – | – | 350
11 | O=C(O)c1ccccc1C(Cc1c[nH]cn1)c1ccccc1 (stereo not shown) [Compound 30] | 12 | – | – | 1 | – | – | > 300
12 | CCCC(OC)(c1c[nH]cn1)C(c1ccccc1)c1ccccc1 (stereo not shown) [Compound 20, 4(5)-[2-(1,1-diphenyl-2-methoxy)-pentyl]imidazole] | 0 | 60 | 62 | 6 | – | – | > 300
